Data taken from patent US20240307577A1, “CHLORINATED 4'-ALKYLUMBELLIFERYL ALPHA-D-GLUCOPYRANOSIDE AND METHOD OF ASSESSING EFFICACY OF A STERILIZATION PROCESS INCLUDING THE SAME” (3M INNOVATIVE PROPERTIES COMPANY, priority 2021, published 2024).

Test system: Geobacillus stearothermophilus spores (ATCC 7953)
Assay: Fluorescence of enzyme substrates in culture media with Geobacillus stearothermophilus spores (96-well plate, 60° C.)
Type: cell-based
Details: for MEASURED FLUORESCENCE, RFU 10 Sec / MEASURED FLUORESCENCE, RFU +5 min / MEASURED FLUORESCENCE, RFU +10 min / MEASURED FLUORESCENCE, RFU +30 min / MEASURED FLUORESCENCE, RFU 10 sec: substrate 0.3 mg/mL, 60° C.; for fluorescent signal in the presence of Geobacillus stearothermophilus spores compared with MUG and 8F-MUG: high and low spore levels, two low pH levels, MUG also at its optimal pH of 8.0
Method: Culture media was prepared by dissolving by dissolving 2 g/L phytone peptone (BD BBL 211906) and 0.2 g/L L-alanine (Sigma 05129) in deionized water. 1N NaOH or 0.1 N HCl were used to adjust pH, and media were brought to volume and filter sterilizing using a 0.22 micron polyethersulfone (PES) filter. Stock solutions (25 mg/ml) of 6′-chloro-4′-methylumbelliferyl-a-D-glucopyranoside, 8′-chloro-4′-methylumbelliferyl-a-D-glucopyranoside, 8′-fluoro-4′-methylumbelliferyl-a-D-glucopyranoside, and 4-methylumbelliferyl-a-D-glucopyranoside were prepared in DMSO. The fluorogenic a-glucosidase substrates were added to culture media at a final concentration of 0.3 mg/ml.
(§1) Culture media (pH 6.7) containing 6′-chloro-4′-methylumbelliferyl α-D-glucopyranoside (0.3 mg/mL) was each added to eight wells (100 microliters per well) of a black 96-well microtiter plate with (NUNC #165301, Thermo Fisher Scientific, Waltham, Massachusetts). A 5-microliter aqueous suspension containing 5×10^3 Geobacillus stearothermophilus spores (ATCC 7953) was added to 4 of the wells for each medium in the microtiter plate. […] The top of the plate was covered with an optically clear sealing film (product #4311971, Applied Biosystems Corporation, Foster City, California). The plate was warmed at 60° C. and shaken in a linear direction. Fluorescence readings (360 nm excitation/450 nm emission at 50% gain) were taken from the bottom of the plate. A reading was taken at an initial time point of 10 seconds and then at +1-minute intervals thereafter. A Synergy Neo2 fluorescence plate reader (BioTek Company, Winooski, Vermont) was used. In Table 1, the mean fluorescence values detected (RFU) at times of 10 seconds, +5 minutes, +10 minutes, and +30 minutes are reported. The mean fluorescence values detected for the control wells were 511 RFU at 10 seconds; 426 RFU at +5 minutes: 373 RFU at +10 minutes, and 310 RFU at +30 minutes.
as §1, with “(pH 7.0)” for “(pH 6.7)”, “Table 2,” for “Table 1,”, “were 512” for “were 511”, “seconds; 417” for “seconds; 426”, “+5 minutes; 363” for “+5 minutes: 373”, “and 308” for “and 310”
Culture media (pH 6.7) containing 6′-chloro-4′-methylumbelliferyl α-D-glucopyranoside (0.3 mg/mL) was each added to eight wells (100 microliters per well) of a black 96-well microtiter plate with (NUNC #165301, Thermo Fisher Scientific, Waltham, Massachusetts). A 5-microliter aqueous suspension containing 5×10^5 Geobacillus stearothermophilus spores (ATCC 7953) was added to 4 of the wells for each medium in the microtiter plate. […] The top of the plate was covered with an optically clear sealing film (product #4311971, Applied Biosystems Corporation, Foster City, California). The plate was warmed at 60° C. and shaken in a linear direction. Fluorescence readings (360 nm excitation/450 nm emission at 50% gain) were taken from the bottom of the plate. […]

[1] = 5 × 10^3 spores, culture media pH 6.7, 360 nm ex/450 nm em
[2] = 5 × 10^3 spores, culture media pH 6.7
[3] = 5 × 10^3 spores, culture media pH 7.0
[4] = 5 × 10^5 spores, culture media pH 6.7
[5] = 5 × 10^5 spores, culture media pH 7.0
[6] = 5 × 10^3 spores, culture media pH 8.0
[7] = 5 × 10^5 spores, culture media pH 8.0

Row | fluorescent signal in the presence of Geobacillus stearothermophilus spores compared with MUG and 8F-MUG | SMILES | MEASURED FLUORESCENCE, RFU 10 Sec [1] [RFU] | MEASURED FLUORESCENCE, RFU +5 min [2] [RFU] | MEASURED FLUORESCENCE, RFU +10 min [2] [RFU] | MEASURED FLUORESCENCE, RFU +30 min [2] [RFU] | MEASURED FLUORESCENCE, RFU 10 Sec [3] [RFU] | MEASURED FLUORESCENCE, RFU +5 min [3] [RFU] | MEASURED FLUORESCENCE, RFU +10 min [3] [RFU] | MEASURED FLUORESCENCE, RFU +30 min [3] [RFU] | MEASURED FLUORESCENCE, RFU 10 sec [4] [RFU] | MEASURED FLUORESCENCE, RFU +5 min [4] [RFU] | MEASURED FLUORESCENCE, RFU +10 min [4] [RFU] | MEASURED FLUORESCENCE, RFU +30 min [4] [RFU] | MEASURED FLUORESCENCE, RFU 10 sec [5] [RFU] | MEASURED FLUORESCENCE, RFU +5 min [5] [RFU] | MEASURED FLUORESCENCE, RFU +10 min [5] [RFU] | MEASURED FLUORESCENCE, RFU +30 min [5] [RFU] | further results
1 | higher fluorescent signal | Cc1cc(=O)oc2cc(O[C@H]3O[C@H](CO)[C@@H](O)[C@H](O)[C@H]3O)c(Cl)cc12 [Example 1, 6′-chloro-4′-methylumbelliferyl α-D-glucopyranoside] | 1013 | 2251 | 4622 | 12582 | 1226 | 2377 | 4424 | 11941 | 17227 | 53202 | 79375 | 98077 | 18386 | 53621 | 81061 | 99019 | 
2 | higher fluorescent signal | Cc1cc(=O)oc2c(Cl)c(O[C@H]3O[C@H](CO)[C@@H](O)[C@H](O)[C@H]3O)ccc12 [Example 2, 8′-chloro-4′-methylumbelliferyl α-D-glucopyranoside] | 1164 | 3013 | 6278 | 15253 | 1500 | 3370 | 6612 | 16521 | 21302 | 56949 | 73987 | 81560 | 21883 | 58454 | 77112 | 83010 | 
3 |  | Cc1cc(=O)oc2c(F)c(O[C@H]3O[C@H](CO)[C@@H](O)[C@H](O)[C@H]3O)ccc12 [Example 8F-MUG, 8′-fluoro-4′-methylumbelliferyl α-D-glucopyranoside, reference compound] | 693 | 1422 | 2869 | 8410 | 777 | 1573 | 3153 | 9038 | 8975 | 31069 | 50175 | 67041 | 8171 | 34178 | 56663 | 70392 | 
4 |  | Cc1cc(=O)oc2cc(O[C@H]3O[C@H](CO)[C@@H](O)[C@H](O)[C@H]3O)ccc12 [MUG, 4′-methylumbelliferyl-α-D-glucopyranoside, reference compound] | 430 | 403 | 464 | 991 |  |  |  |  | 895 | 3260 | 8049 | 29586 |  |  |  |  | MEASURED FLUORESCENCE, RFU 10 Sec [6]: 540 RFU; MEASURED FLUORESCENCE, RFU +5 min [6]: 658 RFU; MEASURED FLUORESCENCE, RFU +10 min [6]: 993 RFU; MEASURED FLUORESCENCE, RFU +30 min [6]: 2891 RFU; MEASURED FLUORESCENCE, RFU 10 sec [7]: 2644 RFU; MEASURED FLUORESCENCE, RFU +5 min [7]: 12059 RFU; MEASURED FLUORESCENCE, RFU +10 min [7]: 29277 RFU; MEASURED FLUORESCENCE, RFU +30 min [7]: 75861 RFU
